Measurements as given in US20220039384A1, “SELECTIVE WEED CONTROL WITH HALAUXIFEN OR 4-AMINO-3-CHLORO-5-FLUORO-6-(4-CHLORO-2-FLUORO-3-METHOXYPHENYL) PYRIDINE-2-CARBOXYLIC ACID OR DERIVATIVES THEREOF IN VINEYARDS OR PERENNIAL CROPS” (Corteva Agriscience LLC, priority 2013, published 2022).

Experiments:
[1] = tested on: ERIBO (Conyza bonariensis, hairy fleabane); test: Field trial, post-emergence directed spring application (April), California vineyards: visual weed control; assay type: in vivo; settings: 35 g ai/ha
Description: (§1) As used herein, selective pre- and post-emergence control of undesirable vegetation means preventing, reducing, killing, or otherwise adversely modifying the development of the undesirable vegetation in the presence of crop plants with limited adverse effect on the crop plants. For example, a broadleaf weed control of 80% (rated visually) with crop injury of less than or equal to 20% (rated visually) would constitute selective control. In some embodiments the adverse effect on crop plants is limited to less than 10% visually rated crop injury. Visual crop injury is a composite rating accounting for all phytotoxic effects including chlorosis, necrosis, growth inhibition, epinasty, delays in maturity and seed or fruit deformity. Visual weed control is a composite rating accounting for reductions in pest plant biomass and/or stand reduction.
(§2) Small plot research experiments were conducted in Fresno, Calif., USA to evaluate the pre-emergence and post-emergence herbicidal weed control activity and the vines crop tolerance to pre-emergence and post-emergence application of Compound I and Compound II to the weeds. Application water volume of 100 to 187 liters per hectare (L/ha) was used for all experiments. All treatments were applied with a standard small plot carbon dioxide (CO2) backpack sprayer. All treatments were tank-mixed with Crop Oil Concentrate (COC), a well known adjuvant, at 2.34 L/ha. Experimental emulsifiable concentrate (EC) formulations were used for Compounds I and II. The dimethylammonium (DMA) salt of glyphosate was used in all trials. Pindar® GT is a commercial formulation containing a pre-mix of penoxsulam+oxyfluorfen (10+476 grams of active ingredient per liter (g ai/L), respectively). Vine crop stage was dormant (no leaves on the vines during the winter) or early spring growth at the time of Compound I or Compound II application. Generally, weeds were not emerged for the pre-emergence treatments or were at the two to six-leaf stage at the time of the post-emergence herbicide application.
(§3) Tables 1, 2 and 6 provide weed control results from pre-emergence applications of Compounds I and/or II prior to weed emergence; Tables 4, 7 and 8 provide weed control results from post-emergence applications of Compounds I and/or II applied to actively growing weeds; Tables 3 and 5 provide vine response data from pre-emergence and post-emergence applications of Compound I respectively.

[2] = tested on: MALPA (Malva parviflora, smallflower malva); test: as above; assay type: in vivo; settings: 35 g ai/ha
Description: as §1, §2, §3

[3] = tested on: AGRRE (Agropyron repens, quackgrass); test: as above; assay type: in vivo; settings: 35 g ai/ha
Description: as §1, §2, §3

[4] = tested on: EROCI (Erodium cicutarium, redstem filaree); test: as above; assay type: in vivo; settings: 35 g ai/ha
Description: as §1, §2, §3

[5] = tested on: SETFA (Setaria faberi, giant foxtail); test: as above; assay type: in vivo; settings: 35 g ai/ha
Description: as §1, §2, §3

[6] = tested on: PANCA (Panicum capillare, witchgrass); test: as above; assay type: in vivo; settings: 35 g ai/ha
Description: as §1, §2, §3

[7] = tested on: VITSS (Vitis spp, grape); settings: in vivo
Protocol: as §2, with “herbicide application. […]” for “herbicide application.”

[8] = tested on: commercially relevant broadleaf and grass weeds; test: Pre- and post-emergence weed control, general statement; assay type: in vivo
Description: (§4) Additional examples of application rates for Compound I as a pre-emergence and post-emergence application include 0.25 to 50 g ae/ha, 0.25 to 45 g ae/ha, 0.25 to 40 g ae/ha, 0.25 to 35 g ae/ha, 0.25 to 30 g ae/ha, 0.25 to 25 g ae/ha, 0.25 to 20 g ae/ha, 0.25 to 15 g ae/ha, 0.25 to 10 g ae/ha, 0.25 to 5 g ae/ha, 2.5 to 50 g ae/ha, 5 to 50 g ae/ha, 10 to 50 g ae/ha, 15 to 50 g ae/ha, 20 to 50 g ae/ha, 25 to 50 g ae/ha, 30 to 50 g ae/ha, 35 to 50 g ae/ha, 40 to 50 g ae/ha, 45 to 50 g ae/ha, 5 to 40 g ae/ha, 10 to 40 g ae/ha, 15 to 40 g ae/ha, 20 to 40 g ae/ha, 25 to 40 g ae/ha, 30 to 40 g ae/ha, 35 to 40 g ae/ha, 2.5 to 35 g ae/ha, 2.5 to 30 g ae/ha, 2.5 to 25 g ae/ha, 2.5 to 20 g ae/ha, 2.5 to 15 g ae/ha, 2.5 to 10 g ae/ha, 2.5 to 5 g ae/ha, 5 to 35 g ae/ha, 10 to 30 g ae/ha, 15 to 25 g ae/ha, and 15 to 20 g ae/ha. Further examples of application rates for Compound I as a pre-emergence and post-emergence application include 0.25 g ae/ha, 0.5 g ae/ha, 0.75 g ae/ha, 1 g ae/ha, 1.25 g ae/ha, 1.5 g ae/ha, 1.75 g ae/ha, 2 g ae/ha, 2.25 g ae/ha, 2.5 g ae/ha, 3 g ae/ha, 4 g ae/ha, 5 g ae/ha, 6 g ae/ha, 7 g ae/ha, 8 g ae/ha, 9 g ae/ha, 10 g ae/ha, 12 g ae/ha, 14 g ae/ha, 16 g ae/ha, 18 g ae/ha, 20 g ae/ha, 22 g ae/ha, 24 g ae/ha, 26 g ae/ha, 28 g ae/ha, 30 g ae/ha, 32 g ae/ha, 34 g ae/ha, 36 g ae/ha, 38 g ae/ha, 40 g ae/ha, 42 g ae/ha, 44 g ae/ha, 46 g ae/ha, 48 g ae/ha, and 50 g ae/ha. […]

[9] = tested on: grapevines and perennial crops; test: Crop safety, general statement; assay type: in vivo; settings: post-emergence application rates of ≤20 g ae/ha; dormant application or spring application directed under the crops
Description: as §4

SMILES	% Visual Control 60 DAA ERIBO [1] [%]	% Visual Control 60 DAA MALPA [2] [%]	% Visual Control 60 DAA AGRRE [3] [%]	% Visual Control 60 DAA EROCI [4] [%]	% Visual Control 60 DAA SETFA [5] [%]	% Visual Control 60 DAA PANCA [6] [%]	VITSS 60 DAA Node Count [7]	VITSS 60 DAA Vine Length (cm) [7] [cm]	efficacy on commercially relevant broadleaf and grass weeds ([8]; application rate of 2.5 to 40 g ae/ha, pre-emergence and post-emergence application)	crop injury to grapevines and perennial crops [9]	efficacy on commercially relevant broadleaf and grass weeds ([8]; application rate of 2.5 to 50 g ai/ha, pre-emergence or post-emergence application)
COc1cnc(OC)n2nc(NS(=O)(=O)c3c(OCC(F)F)cccc3C(F)(F)F)nc12 [Penoxsulam, reference compound]	85	85	87	87	97	85	20	89			
COc1c(Cl)ccc(-c2cc(N)c(Cl)c(C(=O)O)n2)c1F [Compound I, 4-amino-3-chloro-6-(4-chloro-2-fluoro-3-methoxyphenyl)pyridine-2-carboxylic acid]									highly efficacious	little to no crop injury	
COc1c(Cl)ccc(-c2nc(C(=O)O)c(Cl)c(N)c2F)c1F [Compound II, 4-amino-3-chloro-5-fluoro-6-(4-chloro-2-fluoro-3-methoxyphenyl)pyridine-2-carboxylic acid]										little to no crop injury	highly efficacious
